# According to patent US6576254B1, “Polyamino acid vesicles” (University of Strathclyde, priority 1998, dated 2003):
# System: A549 cells
# Assay: Transfection of A549 cells with POP:cholesterol vesicles complexed to pCMV-sport-β-gal plasmid (β-galactosidase activity, absorbance 420 nm)
# Type: cell-based
# Conditions: 50 μM chloroquine added during transfection with POP:cholesterol vesicle-plasmid complexes
# Procedure: Transfection experiments were carried out with the endotoxin free pCMV-sport-β-gal plasmid. 96-well plates were seeded with A549 calls (10,000 cells well^−1, 50,000 cells mL^−1) and incubated overnight with DMEM/F10+10% foetal calf serum (FCS)-Life Sciences, UK in 2% CO2 at 37° C. […] The mixture was incubated for 4 h (2% CO2, 37° C.) after which the media and POP-plasmid complexes were removed and replaced with DMEM/F10+10% FCS (0.2 mL). Cells were fed daily (DMEM/F10+10% FCS) over a 48 h period at the end of which they were lysed by the addition of 0.05 mL triton X-100 buffer (0.1% triton X-100, 0.25M tris hydrochloride, pH=8.0). The cells were then frozen at −70° C. and thawed at room temperature and 0.5% bovine serum albumin in phosphate buffered saline (0.05 mL) added to each well. This was followed by the addition of 0.15 mL ONPG (o-nitrophenyl β-D-galactopyranoside) in buffer (0.06M sodium dibasic phosphate, 0.001M magnesium chloride, 0.01M potassium chloride, 0.05M β-mercaptoethanol, pH=8.0). β-galactosidase activity was estimated by measuring the absorbance (420 nm) on a microtitre plate reader.
smiles,measurement,value
CCN(CC)CCCC(C)Nc1ccnc2cc(Cl)ccc12 (stereo not shown) [chloroquine],Effect on transfection levels,increase transfection levels
